Columns and labels:
[1] = molecular target: T1, human CLK1 (Homo sapiens, UniProt P49759); experiment: CLK1 enzyme assay (ADP-Glo); format: biochemical; settings: ADP-Glo, ATP 10 μM; read-out: CLK1 IC50
T1 construct: Recombinant human CLK1 (129-end); GST (N); purchased SignalChem C57-11G; host or cells: Sf9 insect cells
Method in brief: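 GST-tagged CLK1 (129-end, Sf9-expressed) at 16 nM was preincubated with compound 30 min at 25 °C in 40 mM Tris pH 7.5, 20 mM MgCl2, 0.1 mg/ml BSA, 50 μM DTT. Reaction with 2 μM substrate and 10 μM ATP ran 60 min at 25 °C. ADP-Glo luminescence gave IC50 by four-parameter fit.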

[2] = molecular target: T2, human GSK3 beta (Homo sapiens, UniProt P49841); experiment: GSK3 beta enzyme assay (ADP-Glo); format: biochemical; settings: ATP 25 μM, read-out: GSK3b IC50
T2 construct: Recombinant full-length human GSK3 beta (expressed in Sf9 insect cells with an N-terminal His tag); His (N); purchased SignalChem G09-10H; host or cells: Sf9 insect cells
T2 sequence (P49841 whole entry): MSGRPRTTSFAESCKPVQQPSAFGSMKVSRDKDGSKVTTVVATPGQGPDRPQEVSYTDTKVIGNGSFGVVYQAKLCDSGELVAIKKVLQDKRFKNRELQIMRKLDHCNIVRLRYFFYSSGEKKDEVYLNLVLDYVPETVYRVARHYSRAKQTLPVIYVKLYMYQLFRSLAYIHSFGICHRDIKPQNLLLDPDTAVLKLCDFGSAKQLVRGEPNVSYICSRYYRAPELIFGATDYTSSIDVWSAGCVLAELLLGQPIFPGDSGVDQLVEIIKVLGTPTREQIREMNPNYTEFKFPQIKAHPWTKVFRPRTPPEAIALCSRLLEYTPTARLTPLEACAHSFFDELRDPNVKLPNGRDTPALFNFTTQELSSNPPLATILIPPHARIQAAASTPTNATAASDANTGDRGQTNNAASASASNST
Method in brief: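 Full-length His-tagged human GSK3β from Sf9 cells (4 nM) preincubated 30 min at 25 °C with inhibitor in Tris pH 7.5/MgCl2/BSA/DTT, then reacted 60 min at 25 °C with 13 μM substrate peptide and 25 μM ATP. ADP measured by ADP-Glo luminescence; IC50 from four-parameter logistic fit of % inhibition.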

T1 sequence (P49759 129-484 limits assumed): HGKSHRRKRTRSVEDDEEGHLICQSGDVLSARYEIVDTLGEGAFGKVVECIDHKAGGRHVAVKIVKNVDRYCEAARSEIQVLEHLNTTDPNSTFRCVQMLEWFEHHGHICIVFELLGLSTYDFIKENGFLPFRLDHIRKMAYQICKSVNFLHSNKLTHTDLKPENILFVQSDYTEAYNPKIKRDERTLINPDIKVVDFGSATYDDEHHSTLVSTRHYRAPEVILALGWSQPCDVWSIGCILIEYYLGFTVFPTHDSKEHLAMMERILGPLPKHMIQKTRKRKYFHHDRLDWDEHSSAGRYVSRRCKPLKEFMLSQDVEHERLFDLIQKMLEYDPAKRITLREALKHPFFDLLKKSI

SMILES	IC50 [1]	IC50 [2]
O=C1NC(Nc2ccccc2)=N/C1=C\c1ccc2nn[nH]c2c1 [Example 56, (Z)-5-((1H-benzo[d][1,2,3]triazol-6-yl)methylene)-2-(phenylamino)-3,5-dihydro-4H-imidazol-4-one]	< 0.1 µM	1 to 10 µM
O=C1NC(Nc2ccc3ncsc3c2)=N/C1=C\c1ccc2scnc2c1 [Example 57, (Z)-5-(benzo[d]thiazol-5-ylmethylene)-2-(benzo[d]thiazol-6-ylamino)-3,5-dihydro-4H-imidazol-4-one]	< 0.1 µM	> 10 µM
O=C1NC(Nc2ccc3ncsc3c2)=N/C1=C\c1ccc2[nH]ccc2c1 [Example 58, (Z)-5-((1H-indol-5-yl)methylene)-2-(benzo[d]thiazol-6-ylamino)-3,5-dihydro-4H-imidazol-4-one]	> 10 µM	> 10 µM
O=C1NC(Nc2ccc3ncsc3c2)=N/C1=C\c1ccc2occc2c1 [Example 59, (Z)-2-(benzo[d]thiazol-6-ylamino)-5-(benzofuran-5-ylmethylene)-3,5-dihydro-4H-imidazol-4-one]	> 10 µM	> 10 µM
O=C1NC(Nc2ccc3ncsc3c2)=N/C1=C\c1ccc2cccnc2c1 [Example 60, (Z)-2-(benzo[d]thiazol-6-ylamino)-5-(quinolin-7-ylmethylene)-3,5-dihydro-4H-imidazol-4-one]	> 10 µM	> 10 µM
Cn1cnc2cc(NC3=N/C(=C\c4ccc5ncsc5c4)C(=O)N3)ccc21 [Example 61, (Z)-5-(benzo[d]thiazol-6-ylmethylene)-2-((1-methyl-1H-benzo[d]imidazol-5-yl)amino)-3,5-dihydro-4H-imidazol-4-one]	0.1 to 1 µM	0.1 to 1 µM
O=C1NC(Nc2ccc3ncsc3c2)=N/C1=C\c1ccc2cc[nH]c2c1 [Example 63, (Z)-5-((1H-indol-6-yl)methylene)-2-(benzo[d]thiazol-6-ylamino)-3,5-dihydro-4H-imidazol-4-one]	> 10 µM	> 10 µM
O=C1NC(Nc2ccc3[nH]ccc3c2)=N/C1=C\c1ccc2ncsc2c1 [Example 69, (Z)-2-((1H-indol-5-yl)amino)-5-(benzo[d]thiazol-6-ylmethylene)-3,5-dihydro-4H-imidazol-4-one]	< 0.1 µM	0.1 to 1 µM
CN(C1=N/C(=C\c2ccc3c(c2)OCO3)C(=O)N1)c1ccc2ncsc2c1 [Example 70, (Z)-5-(benzo[d][1,3]dioxol-5-ylmethylene)-2-(benzo[d]thiazol-6-yl(methyl)amino)-3,5-dihydro-4H-imidazol-4-one]	< 0.1 µM	> 10 µM
Cn1cnc2cc(/C=C3\N=C(Nc4ccccc4)NC3=O)ccc21 [Example 71, (Z)-5-((1-methyl-1H-benzo[d]imidazol-5-yl)methylene)-2-(phenylamino)-3,5-dihydro-4H-imidazol-4-one]	> 10 µM	> 10 µM
O=C1NC(Nc2ccccc2)=N/C1=C\c1ccc2sccc2c1 [Example 72, (Z)-5-(benzo[b]thiophen-5-ylmethylene)-2-(phenylamino)-3,5-dihydro-4H-imidazol-4-one]	> 10 µM	> 10 µM
O=C1NC(Nc2ccccc2)=N/C1=C\c1ccc2cc[nH]c2c1 [Example 73, (Z)-5-((1H-indol-6-yl)methylene)-2-(phenylamino)-3,5-dihydro-4H-imidazol-4-one]	> 10 µM	> 10 µM
O=C1NC(Nc2ccc3ncsc3c2)=N/C1=C\c1ccc2c(c1)OCCO2 [Example 74, (Z)-2-(benzo[d]thiazol-6-ylamino)-5-((2,3-dihydrobenzo[b][1,4]dioxin-6-yl)methylene)-3,5-dihydro-4H-imidazol-4-one]	> 10 µM	> 10 µM
Cn1cnc2ccc(/C=C3\N=C(Nc4ccc5ncsc5c4)NC3=O)cc21 [Example 75, (Z)-2-(benzo[d]thiazol-6-ylamino)-5-((1-methyl-1H-benzo[d]imidazol-6-yl)methylene)-3,5-dihydro-4H-imidazol-4-one]	< 0.1 µM	0.1 to 1 µM

Reference: patent US12643887B2, “Heterocyclic derivatives with cardiomyocyte proliferation activity for treatment of heart diseases” (Tongji University, priority 2019, dated 2026)
